Data taken from PMC12291913 (Antibiotics, 2025).
“And” between values parts separate entries of the source, which are not always exact repeats. Identical values can stand only once.

Tested on: M. avium clinical isolate Koav 11 (GyrA Asp95Tyr)
Assay type: cell-based, M. avium subsp. hominissuis

Cc1c(N2CC(N(C)C)C2)c(F)cc2c(=O)c(C(=O)O)cn(-c3nc(N)c(F)cc3F)c12 [WQ-3810]
MIC of FQ with EMB: 2 µg/mL | MIC of FQ with INH: 1 µg/mL and 0.5 µg/mL | MIC of drug alone: 4 µg/mL | mean FICIm: 0.46 and 0.83
